Source: patent US20070032506A1, “CRYSTALLINE FORMS OF (2R-TRANS)-6-CHLORO-5[[4-[(4-FLUOROPHENYL)METHYL]-2,5-DIMETHYL-1-PIPERAZINYL]CARBONYL]-N,N, 1-TRIMETHYL-ALPHA-OXO-1H-INDOLE-3-ACETAMIDE MONOHYDROCHLORIDE” (priority 2005, published 2007)

Test: Dynamic Vapor Sorption analysis
Type: physicochemical
Conditions: humidity range ~21-70% Relative Humidity, Material recrystallized from isopropanol
Excerpt: The results of the XRPD analysis are shown both in Table I above and in FIG. 2. Dynamic Vapor Sorption analysis of this same materials was also done. […] (2 moles of water per molecule of the Compound would be 6.15% water).

## C[C@@H]1CN(Cc2ccc(F)cc2)[C@@H](C)CN1C(=O)c1cc2c(C(=O)C(=O)N(C)C)cn(C)c2cc1Cl.Cl [Compound, (2R-trans)-6-chloro-5-[[4-[(4-fluorophenyl)methyl]-2,5-dimethyl-1-piperazinyl]carbonyl]-N,N, 1-trimethyl-alpha-oxo-1H-indole-3-acetamide monohydrochloride]
  water content (water weight gained): 6-7%
